Values quoted from earlier work in US10308937B2, “Combination long acting compositions and methods for Hepatitis C” (GlaxoSmithKline Intellectual Property (No. 2) Limited, priority 2014, dated 2019).

Conditions: patients treated at currently recommended doses

NC(=O)c1ncn([C@@H]2O[C@H](CO)[C@@H](O)[C@H]2O)n1 [Ribavirin]
patients with significant hemolysis: 10-20 % of patients
